Experimental data taken from US7329670B1, “Inhibition of RAF kinase using aryl and heteroaryl substituted heterocyclic ureas” (Bayer Pharmaceuticals Corporation, priority 1997, dated 2008).

SMILES	melting point [°C]
CC(C)(C)c1cc(NC(=O)Nc2cccc(Cl)c2Cl)c(-c2ccncc2)o1 [Entry 40, N-(2-(4-Pyridinyl)-5-tert-butyl-3-furyl)-N′-(2,3-dichlorophenyl)urea]	195 to 198
CC(C)(C)c1cc(NC(=O)Nc2cccc(Cl)c2Cl)c(-c2ccccc2)s1 [Entry 41, N-(2-Phenyl-5-tert-butyl-3-thienyl)-N′-(2,3-dichlorophenyl)urea]	171 to 173
